#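 Protocol summary: plate cells (96-well), add compound at 5 concentrations, incubate 48 h, interpolate endpoints linearly. Here, GI50 denotes the concentration required for 50% inhibition of growth.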 The source made the active and inactive calls. No stated cut-off is given here; in the data, active = GI50 up to about 1.1 µM and inactive = higher.
# How the values were obtained:
# Assay in all cases: inhibition of tumour cell growth, NCI panel, 48 h
# [1] = tested on: HOP-92
# [2] = tested on: OVCAR-3
# [3] = tested on: LOX IMVI
# [4] = tested on: A549
# [5] = tested on: HCT-116
# [6] = tested on: SK-OV-3
# [7] = tested on: M14
# [8] = tested on: A498
# [9] = tested on: NCI-H460
# [10] = tested on: U-251
# [11] = tested on: SNB-75
# [12] = tested on: SN12C
# [13] = tested on: OVCAR-8
# [14] = tested on: SF-295
# [15] = tested on: OVCAR-4
# [16] = tested on: K562
# [17] = tested on: OVCAR-5
# [18] = tested on: IGROV-1
# [19] = tested on: HL-60
SMILES,GI50 [1],GI50 [2],GI50 [3],GI50 [4],GI50 [5],GI50 [6],GI50 [7],GI50 [8],GI50 [9],GI50 [10],GI50 [11],GI50 [12],GI50 [13],GI50 [14],GI50 [15],GI50 [16],GI50 [17],GI50 [18],GI50 [19]
CC1=C2C(=CC(C)(C)[C@@H]2O)C(=O)[C@](C)(O)C12CC2 [ILLUDIN M],0.0193 µM (active),< 0.0143 µM (active),0.0172 µM (active),0.0275 µM (active),0.01 µM (active),0.0197 µM (active),0.0156 µM (active),0.0206 µM (active),0.01 µM (active),0.01 µM (active),0.0165 µM (active),0.0236 µM (active),< 0.018 µM (active),< 0.018 µM (active),< 0.0112 µM (active),0.0181 µM (active),0.0183 µM (active),0.00989 µM (active),0.0156 µM (active)
CNc1nnnn1C1OC(CO)C(O)C1O (stereo not given),,> 100 µM (inactive),> 100 µM (inactive),> 100 µM (inactive),> 100 µM (inactive),> 100 µM (inactive),> 100 µM (inactive),> 100 µM (inactive),> 100 µM (inactive),> 100 µM (inactive),> 100 µM (inactive),> 100 µM (inactive),> 100 µM (inactive),> 100 µM (inactive),,> 100 µM (inactive),> 100 µM (inactive),> 100 µM (inactive),
COc1ccccc1-n1c(N)c2c(C)c(-c3ccccc3)[nH]c2nc1=S,> 100 µM (inactive),> 100 µM (inactive),> 100 µM (inactive),5.74 µM (inactive),> 100 µM (inactive),,> 100 µM (inactive),> 100 µM (inactive),> 100 µM (inactive),54.3 µM (inactive),59.3 µM (inactive),> 100 µM (inactive),> 100 µM (inactive),,> 100 µM (inactive),> 100 µM (inactive),> 100 µM (inactive),,> 100 µM (inactive)
C/C(CC(=O)Nc1ccc(Cl)c(Cl)c1)=N/NC(=O)C[N+](C)(C)C,> 100 µM (inactive),> 100 µM (inactive),18.1 µM (inactive),> 100 µM (inactive),> 100 µM (inactive),,> 100 µM (inactive),> 100 µM (inactive),65.2 µM (inactive),,> 100 µM (inactive),> 100 µM (inactive),> 100 µM (inactive),> 100 µM (inactive),> 100 µM (inactive),46.1 µM (inactive),> 100 µM (inactive),> 100 µM (inactive),44 µM (inactive)
COc1ccc(OC2(c3cc(OC)ccc3OC)OC(=O)c3ccccc32)cc1 (stereo not given),> 100 µM (inactive),> 100 µM (inactive),> 100 µM (inactive),> 100 µM (inactive),> 100 µM (inactive),> 100 µM (inactive),> 100 µM (inactive),> 100 µM (inactive),> 100 µM (inactive),> 100 µM (inactive),> 100 µM (inactive),> 100 µM (inactive),> 100 µM (inactive),> 100 µM (inactive),> 100 µM (inactive),> 100 µM (inactive),> 100 µM (inactive),> 100 µM (inactive),> 100 µM (inactive)
COC(=O)C(CCCN1C(=O)c2ccccc2C1=O)C(=O)OC,> 100 µM (inactive),> 100 µM (inactive),> 100 µM (inactive),> 100 µM (inactive),> 100 µM (inactive),> 100 µM (inactive),> 100 µM (inactive),> 100 µM (inactive),> 100 µM (inactive),> 100 µM (inactive),> 100 µM (inactive),> 100 µM (inactive),> 100 µM (inactive),> 100 µM (inactive),> 100 µM (inactive),> 100 µM (inactive),> 100 µM (inactive),> 100 µM (inactive),> 100 µM (inactive)
CN1CCCCC(C#N)(c2ccccc2)CC1 (stereo not given),> 100 µM (inactive),,,> 100 µM (inactive),> 100 µM (inactive),> 100 µM (inactive),> 100 µM (inactive),> 100 µM (inactive),> 100 µM (inactive),> 100 µM (inactive),> 100 µM (inactive),,> 100 µM (inactive),> 100 µM (inactive),> 100 µM (inactive),> 100 µM (inactive),> 100 µM (inactive),> 100 µM (inactive),> 100 µM (inactive)
CC1=C(C(=O)CC(=O)C(=O)NC2C3CC4CC(C3)CC2C4)Sc2ccccc2N1 (stereo not given),20.1 µM (inactive),> 100 µM (inactive),> 100 µM (inactive),> 100 µM (inactive),,> 31.6 µM (inactive),> 100 µM (inactive),> 100 µM (inactive),> 100 µM (inactive),> 100 µM (inactive),> 100 µM (inactive),> 100 µM (inactive),> 100 µM (inactive),> 100 µM (inactive),> 100 µM (inactive),84.3 µM (inactive),> 100 µM (inactive),> 100 µM (inactive),> 100 µM (inactive)
